Measured values published in ChEMBL document CHEMBL1201862, “PubChem BioAssay data set” (2004).
The source made the active and inactive calls.

Tests used:
Hexokinase = Hexokinase (Trypanosoma brucei, UniProt Q38C41); test: Confirmation assay for inhibitors of Trypanosoma brucei hexokinase 1-Analogue-first series. [Related pubchem assays (depositor defined):AID1430, AID1632, AID2516, AID2560, AID2579, AID2600, AID449725, AID492951]; type: functional
[1] = target: T1, Replicative DNA helicase DnaB (Mycobacterium tuberculosis, UniProt P9WMR3); test: DnaB intein splicing inhibitors, dose response, biochemical, cell-free fluorescence (AID 449749); type: functional
T1 sequence (P9WMR3 whole entry): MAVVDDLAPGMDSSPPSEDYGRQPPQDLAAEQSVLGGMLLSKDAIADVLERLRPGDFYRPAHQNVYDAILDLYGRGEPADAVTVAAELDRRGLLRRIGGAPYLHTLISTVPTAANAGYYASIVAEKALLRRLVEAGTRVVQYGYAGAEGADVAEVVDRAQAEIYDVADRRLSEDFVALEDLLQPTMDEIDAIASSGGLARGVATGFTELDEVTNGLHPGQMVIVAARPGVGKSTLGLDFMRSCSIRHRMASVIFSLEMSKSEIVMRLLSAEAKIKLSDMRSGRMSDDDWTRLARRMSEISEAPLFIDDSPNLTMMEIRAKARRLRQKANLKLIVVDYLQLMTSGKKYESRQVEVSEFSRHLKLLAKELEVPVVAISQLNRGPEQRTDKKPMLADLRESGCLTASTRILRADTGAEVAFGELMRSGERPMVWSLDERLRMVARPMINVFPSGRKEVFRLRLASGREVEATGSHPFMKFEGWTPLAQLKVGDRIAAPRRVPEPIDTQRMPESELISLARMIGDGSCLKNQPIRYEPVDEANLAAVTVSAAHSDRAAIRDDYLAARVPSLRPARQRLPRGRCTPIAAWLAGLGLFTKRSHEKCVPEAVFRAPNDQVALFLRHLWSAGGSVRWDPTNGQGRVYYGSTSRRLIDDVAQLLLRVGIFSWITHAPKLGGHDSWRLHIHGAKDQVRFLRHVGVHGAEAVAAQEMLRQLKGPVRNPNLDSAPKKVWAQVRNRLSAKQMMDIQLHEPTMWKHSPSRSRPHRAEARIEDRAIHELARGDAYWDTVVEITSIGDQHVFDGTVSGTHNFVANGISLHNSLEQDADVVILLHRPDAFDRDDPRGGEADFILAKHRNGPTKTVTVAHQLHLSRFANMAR

[2] = Intein inhibitors as potential Tuberculosis drugs, a cytotoxicity screen. [Related pubchem assays (depositor defined):AID2221, AID2223, AID434968, AID435010, AID449749, AID449750, AID489010]; type: functional
Melanocortin receptor 4 = Melanocortin receptor 4 (Homo sapiens, UniProt P32245); type: functional, cell-based;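 note: Cell-based assay with luminescence read-out, confirmatory dose-response testing for agonist activity of biased ligands at MC4R; human U2OS cells with tagged receptor and beta-arrestin; potency of agonists that increase receptor coupling to beta-arrestin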
Protein RecA = target: T2, Protein RecA (Mycobacterium tuberculosis, UniProt P9WHJ3); test: Fluorescence Cell-Free Homogeneous Dose Retest to Identify Inhibitors of RecA-Intein Splicing Activity. [Related pubchem assays (depositor defined):AID2097, AID2223, AID489010, AID492950]; type: functional
T2 sequence (P9WHJ3 whole entry): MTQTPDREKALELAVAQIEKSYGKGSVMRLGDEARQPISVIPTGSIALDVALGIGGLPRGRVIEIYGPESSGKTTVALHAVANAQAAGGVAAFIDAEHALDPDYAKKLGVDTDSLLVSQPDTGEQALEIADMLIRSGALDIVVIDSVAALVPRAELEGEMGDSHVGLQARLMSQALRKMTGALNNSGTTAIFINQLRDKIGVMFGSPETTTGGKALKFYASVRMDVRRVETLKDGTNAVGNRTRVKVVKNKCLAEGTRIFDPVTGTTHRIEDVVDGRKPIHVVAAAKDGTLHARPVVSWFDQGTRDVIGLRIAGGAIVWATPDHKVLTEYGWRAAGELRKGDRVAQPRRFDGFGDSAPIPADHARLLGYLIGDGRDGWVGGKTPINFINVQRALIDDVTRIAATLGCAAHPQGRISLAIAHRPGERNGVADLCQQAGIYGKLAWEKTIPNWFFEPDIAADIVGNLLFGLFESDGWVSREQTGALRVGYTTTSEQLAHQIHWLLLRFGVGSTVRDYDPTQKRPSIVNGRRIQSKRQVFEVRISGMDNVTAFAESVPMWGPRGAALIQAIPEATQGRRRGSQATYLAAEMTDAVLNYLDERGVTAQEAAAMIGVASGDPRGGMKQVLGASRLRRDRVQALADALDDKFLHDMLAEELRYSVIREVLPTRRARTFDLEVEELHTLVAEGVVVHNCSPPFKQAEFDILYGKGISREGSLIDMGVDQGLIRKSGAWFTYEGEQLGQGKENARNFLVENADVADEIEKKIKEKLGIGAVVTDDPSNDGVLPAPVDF

[3] = target: T3, G-protein coupled receptor 55 (Homo sapiens, UniProt Q9Y2T6); test: GPR55 agonists via beta-arrestin recruitment, primary screen, imaging, U2OS cells, beta-arrestin-GFP redistribution (AID 1961); type: functional
[4] = target: DNA damage-inducible transcript 3 protein (Mus musculus, UniProt P35639); type: functional, Cricetulus griseus
Coagulation factor XII = Coagulation factor XII (Homo sapiens, UniProt P00748); type: functional;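 note: activated factor XIIa alpha cleaving a fluorogenic AMC peptide substrate; inhibitor potency from loss of enzyme activity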
[5] = target: T4, Mannose-6-phosphate isomerase (Homo sapiens, UniProt P34949); test: PMI enzyme inhibitors, confirmation, biochemical, fluorescence intensity (AID 1535)
T4 sequence (P34949 whole entry): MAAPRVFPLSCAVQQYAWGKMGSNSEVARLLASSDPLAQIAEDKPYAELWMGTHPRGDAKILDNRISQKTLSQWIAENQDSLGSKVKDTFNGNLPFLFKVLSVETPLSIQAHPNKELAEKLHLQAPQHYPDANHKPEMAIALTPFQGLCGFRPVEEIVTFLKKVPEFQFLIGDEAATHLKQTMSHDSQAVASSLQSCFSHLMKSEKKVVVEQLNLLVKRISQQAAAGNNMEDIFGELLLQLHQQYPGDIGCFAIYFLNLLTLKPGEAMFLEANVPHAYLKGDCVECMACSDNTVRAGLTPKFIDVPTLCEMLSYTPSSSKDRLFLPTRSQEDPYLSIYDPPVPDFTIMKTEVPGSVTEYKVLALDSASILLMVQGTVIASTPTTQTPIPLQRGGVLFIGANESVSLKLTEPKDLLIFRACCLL

Phosphomannomutase 2 = Phosphomannomutase 2 (Homo sapiens, UniProt O15305); test: Counter screen SAR assay for PMM2 inhibitors via a fluorescence intensity assay. [Related pubchem assays (depositor defined):AID1545, AID1574]
[6] = target: T5, Sphingosine 1-phosphate receptor 4 (Homo sapiens, UniProt O95977); test: Fluorescence dose response cell-based high throughput screening assay for agonists of the Sphingosine 1-Phosphate Receptor 4 (S1P4). [Related pubchem assays: 1509 (Primary screen.), 1523 (Confirmation screen in triplicates.)]; type: functional
T5 sequence (O95977 whole entry): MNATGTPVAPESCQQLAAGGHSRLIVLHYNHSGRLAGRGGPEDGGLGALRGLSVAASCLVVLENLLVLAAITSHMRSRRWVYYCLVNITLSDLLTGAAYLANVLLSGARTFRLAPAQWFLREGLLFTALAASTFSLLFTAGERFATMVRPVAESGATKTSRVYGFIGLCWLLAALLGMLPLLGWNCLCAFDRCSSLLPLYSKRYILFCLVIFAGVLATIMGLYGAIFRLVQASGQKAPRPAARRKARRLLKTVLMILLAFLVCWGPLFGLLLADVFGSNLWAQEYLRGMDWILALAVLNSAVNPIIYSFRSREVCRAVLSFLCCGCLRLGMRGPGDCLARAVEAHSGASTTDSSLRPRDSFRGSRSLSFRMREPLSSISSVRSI

[7] = target: Sphingosine 1-phosphate receptor 1 (Homo sapiens, UniProt P21453); test: Fluorescence-based counterscreen assay for S1P4 agonists: Cell-based dose response high throughput screening assay to identify agonists of the Sphingosine 1-Phosphate Receptor 1 (S1P1). [Related pubchem assays (depositor defined):AID1509, AID1523, AID1801, AID463107, AID463118, AID463119, AID463122, AID463123, AID463129, AID463225, AID504400, AID504460]; type: functional
Saccharomyces cerevisiae = test: NALP1 inhibitor project selectivity study, Caspase-1/ASC signal blockade IC50 in S. cerevisiae (AID 488863); type: functional, organism-based
[8] = target: Heat shock protein HSP 90-alpha (Homo sapiens, UniProt P07900); type: functional, organism-based
[9] = Luminescence Cell-Based Dose Retest to Confirm Inhibitors of Cancer Stem Cells. [Related pubchem assays (depositor defined):AID2717, AID2721]; type: functional; settings: Homo sapiens
[10] = target: NACHT, LRR and PYD domains-containing protein 1 (Homo sapiens, UniProt Q9C000); test: NALP1 inhibitors in yeast, dose response, luminescent (AID 488860); type: functional
Beta-galactosidase = Beta-galactosidase (Escherichia coli, UniProt Q8VNN2); test: beta-galactosidase enzyme inhibitors and activators, dose response, artefact control for CCR6 antagonist project, biochemical, E. coli enzyme, set 3 (AID 504712); type: functional
[11] = target: T3, G-protein coupled receptor 55; test: SAR analysis of selective Agonists of GPR55 using an Image-Based Assay - Set 2. [Related pubchem assays (depositor defined):AID1961, AID1965]; type: functional
Cannabinoid receptor 1 [12] = target: T6, Cannabinoid receptor 1 (Homo sapiens, UniProt P21554); test: SAR analysis of agonists of the Cannabinoid Receptor 1 using an Image-Based Assay - Set 3. [Related pubchem assays (depositor defined):AID1961, AID1965]; type: functional
Cannabinoid receptor 2 [13] = target: T7, Cannabinoid receptor 2 (Homo sapiens, UniProt P34972); test: SAR analysis of agonists of the Cannabinoid Receptor 2 using an Image-Based Assay - Set 2. [Related pubchem assays (depositor defined):AID1961, AID1965]; type: functional
[14] = target: T8, G-protein coupled receptor 35 (Homo sapiens, UniProt Q9HC97); test: SAR analysis of Antagonists of the GPR35 Receptor using an Image-Based Assay - Set 4. [Related pubchem assays (depositor defined):[…]]; type: functional
[15] = target: T8, G-protein coupled receptor 35; test: SAR analysis of Agonists of the GPR35 Receptor using an Image-Based Assay - Set 3. [Related pubchem assays (depositor defined):AID1961, AID1965]; type: functional
Cannabinoid receptor 1 [16] = target: T6, Cannabinoid receptor 1; test: SAR analysis of antagonists of the Cannabinoid Receptor 1 using an Image-Based Assay - Set 3. [Related pubchem assays (depositor defined):AID1961, AID1965]; type: functional
Cannabinoid receptor 2 [17] = target: T7, Cannabinoid receptor 2; test: SAR analysis of antagonists of the Cannabinoid Receptor 2 using an Image-Based Assay - Set 2. [Related pubchem assays (depositor defined):AID1961, AID1965]; type: functional
[18] = target: T9, Type-1 angiotensin II receptor (Homo sapiens, UniProt P30556); test: AT1 receptor agonists, dose response, selectivity assay for APJ receptor agonist project, cell-based, uHTS hits (AID 488865); type: functional;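 note: beta-arrestin recruitment to AT1 measured by enzyme fragment complementation luminescence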
T9 sequence (P30556 whole entry): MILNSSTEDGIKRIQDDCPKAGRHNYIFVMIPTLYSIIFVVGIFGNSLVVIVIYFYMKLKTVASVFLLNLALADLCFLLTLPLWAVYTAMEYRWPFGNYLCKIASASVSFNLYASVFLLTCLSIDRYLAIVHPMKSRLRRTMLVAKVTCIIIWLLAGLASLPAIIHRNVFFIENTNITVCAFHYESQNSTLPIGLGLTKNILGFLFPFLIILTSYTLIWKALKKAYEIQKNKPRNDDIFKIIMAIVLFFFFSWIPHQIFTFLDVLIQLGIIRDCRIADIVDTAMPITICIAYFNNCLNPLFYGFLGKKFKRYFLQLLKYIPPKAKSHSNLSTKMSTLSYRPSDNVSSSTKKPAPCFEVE

[19] = target: Voltage-dependent T-type calcium channel subunit alpha-1H (Homo sapiens, UniProt O95180); test: Cav3.2 T-type channel inhibitors, cell-based, synthetic library set 1, calcium flux (AID 493022); type: functional
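Throughout, for CC50: cells exposed to compound for 72 hours before luminescence readout.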

T3 sequence (Q9Y2T6 whole entry): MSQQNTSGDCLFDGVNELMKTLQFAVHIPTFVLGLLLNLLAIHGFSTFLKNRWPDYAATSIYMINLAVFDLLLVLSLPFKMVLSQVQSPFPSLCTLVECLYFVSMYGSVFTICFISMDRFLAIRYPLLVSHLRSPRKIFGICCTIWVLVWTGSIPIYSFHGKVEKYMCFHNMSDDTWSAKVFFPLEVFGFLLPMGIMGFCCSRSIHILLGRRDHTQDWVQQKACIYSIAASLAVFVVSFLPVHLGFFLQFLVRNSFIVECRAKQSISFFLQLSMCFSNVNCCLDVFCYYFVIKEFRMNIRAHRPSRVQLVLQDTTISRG
T8 sequence (Q9HC97 whole entry): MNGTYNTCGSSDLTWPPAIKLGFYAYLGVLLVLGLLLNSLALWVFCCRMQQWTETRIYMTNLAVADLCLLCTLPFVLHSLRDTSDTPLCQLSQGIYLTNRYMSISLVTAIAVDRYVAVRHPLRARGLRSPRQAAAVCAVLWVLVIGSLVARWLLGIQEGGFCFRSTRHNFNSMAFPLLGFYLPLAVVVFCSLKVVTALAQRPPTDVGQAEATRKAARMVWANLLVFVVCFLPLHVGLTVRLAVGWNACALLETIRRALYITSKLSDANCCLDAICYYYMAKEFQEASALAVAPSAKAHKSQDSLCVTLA
T6 sequence (P21554 whole entry): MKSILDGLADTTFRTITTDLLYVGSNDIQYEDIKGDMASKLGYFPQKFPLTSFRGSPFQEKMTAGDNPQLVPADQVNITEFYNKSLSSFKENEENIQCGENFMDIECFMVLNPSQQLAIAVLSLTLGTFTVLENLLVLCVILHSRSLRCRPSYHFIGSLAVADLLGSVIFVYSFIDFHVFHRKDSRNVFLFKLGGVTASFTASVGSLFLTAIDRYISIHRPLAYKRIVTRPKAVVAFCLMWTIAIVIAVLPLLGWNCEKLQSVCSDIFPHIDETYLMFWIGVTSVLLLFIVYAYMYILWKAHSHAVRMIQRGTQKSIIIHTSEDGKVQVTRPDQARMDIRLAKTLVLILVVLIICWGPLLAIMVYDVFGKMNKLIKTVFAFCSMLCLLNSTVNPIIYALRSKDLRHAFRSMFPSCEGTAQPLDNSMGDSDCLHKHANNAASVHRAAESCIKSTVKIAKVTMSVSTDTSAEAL
T7 sequence (P34972 whole entry): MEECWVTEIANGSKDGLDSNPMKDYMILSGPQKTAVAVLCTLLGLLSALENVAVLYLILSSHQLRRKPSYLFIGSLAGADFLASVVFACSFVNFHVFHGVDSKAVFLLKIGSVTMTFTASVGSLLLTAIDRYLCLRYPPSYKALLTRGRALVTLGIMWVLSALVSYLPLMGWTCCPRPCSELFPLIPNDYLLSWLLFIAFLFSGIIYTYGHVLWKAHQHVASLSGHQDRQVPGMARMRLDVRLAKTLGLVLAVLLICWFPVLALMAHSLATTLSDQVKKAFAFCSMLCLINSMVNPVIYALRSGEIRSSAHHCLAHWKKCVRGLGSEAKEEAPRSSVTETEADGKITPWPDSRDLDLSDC
Sequence of Hexokinase (Q38C41 whole entry): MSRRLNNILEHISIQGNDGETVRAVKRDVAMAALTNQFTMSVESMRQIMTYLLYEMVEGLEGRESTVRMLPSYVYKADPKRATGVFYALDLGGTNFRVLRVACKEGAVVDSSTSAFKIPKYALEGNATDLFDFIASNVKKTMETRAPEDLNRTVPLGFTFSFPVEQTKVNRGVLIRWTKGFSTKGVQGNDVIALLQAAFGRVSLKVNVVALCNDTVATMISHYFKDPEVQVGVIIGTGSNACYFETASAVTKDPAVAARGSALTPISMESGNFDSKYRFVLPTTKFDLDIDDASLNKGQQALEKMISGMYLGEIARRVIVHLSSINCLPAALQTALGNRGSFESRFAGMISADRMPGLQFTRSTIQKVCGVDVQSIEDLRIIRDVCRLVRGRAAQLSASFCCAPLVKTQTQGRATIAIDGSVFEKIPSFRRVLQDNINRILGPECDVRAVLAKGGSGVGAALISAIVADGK
Sequence of Coagulation factor XII (P00748 20-372 limits assumed): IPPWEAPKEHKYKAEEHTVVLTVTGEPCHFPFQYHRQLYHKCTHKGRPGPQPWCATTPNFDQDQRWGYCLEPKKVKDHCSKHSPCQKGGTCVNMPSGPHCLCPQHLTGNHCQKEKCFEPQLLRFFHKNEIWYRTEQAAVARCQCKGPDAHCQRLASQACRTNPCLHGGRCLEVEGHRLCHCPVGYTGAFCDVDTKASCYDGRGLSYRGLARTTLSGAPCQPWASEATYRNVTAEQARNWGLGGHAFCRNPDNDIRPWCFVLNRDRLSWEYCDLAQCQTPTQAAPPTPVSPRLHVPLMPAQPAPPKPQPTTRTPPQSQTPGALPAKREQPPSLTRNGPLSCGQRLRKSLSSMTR
Sequence of Coagulation factor XII (P00748 373-615 limits assumed): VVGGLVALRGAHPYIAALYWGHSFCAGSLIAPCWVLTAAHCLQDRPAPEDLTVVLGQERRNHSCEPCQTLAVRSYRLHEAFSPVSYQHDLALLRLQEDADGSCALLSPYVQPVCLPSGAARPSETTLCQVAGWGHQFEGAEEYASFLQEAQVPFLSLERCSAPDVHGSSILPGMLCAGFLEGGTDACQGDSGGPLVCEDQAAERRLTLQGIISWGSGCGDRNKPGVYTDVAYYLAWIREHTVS
Sequence of Melanocortin receptor 4 (P32245 whole entry): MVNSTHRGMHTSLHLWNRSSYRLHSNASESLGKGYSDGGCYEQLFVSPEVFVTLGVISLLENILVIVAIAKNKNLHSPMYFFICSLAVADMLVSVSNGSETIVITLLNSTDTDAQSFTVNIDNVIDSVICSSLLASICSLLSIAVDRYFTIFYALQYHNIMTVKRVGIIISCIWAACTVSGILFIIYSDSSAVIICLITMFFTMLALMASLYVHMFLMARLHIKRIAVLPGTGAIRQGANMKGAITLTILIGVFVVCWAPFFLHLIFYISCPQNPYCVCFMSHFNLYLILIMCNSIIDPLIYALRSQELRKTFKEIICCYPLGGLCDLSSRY
Sequence of Beta-galactosidase (Q8VNN2 whole entry): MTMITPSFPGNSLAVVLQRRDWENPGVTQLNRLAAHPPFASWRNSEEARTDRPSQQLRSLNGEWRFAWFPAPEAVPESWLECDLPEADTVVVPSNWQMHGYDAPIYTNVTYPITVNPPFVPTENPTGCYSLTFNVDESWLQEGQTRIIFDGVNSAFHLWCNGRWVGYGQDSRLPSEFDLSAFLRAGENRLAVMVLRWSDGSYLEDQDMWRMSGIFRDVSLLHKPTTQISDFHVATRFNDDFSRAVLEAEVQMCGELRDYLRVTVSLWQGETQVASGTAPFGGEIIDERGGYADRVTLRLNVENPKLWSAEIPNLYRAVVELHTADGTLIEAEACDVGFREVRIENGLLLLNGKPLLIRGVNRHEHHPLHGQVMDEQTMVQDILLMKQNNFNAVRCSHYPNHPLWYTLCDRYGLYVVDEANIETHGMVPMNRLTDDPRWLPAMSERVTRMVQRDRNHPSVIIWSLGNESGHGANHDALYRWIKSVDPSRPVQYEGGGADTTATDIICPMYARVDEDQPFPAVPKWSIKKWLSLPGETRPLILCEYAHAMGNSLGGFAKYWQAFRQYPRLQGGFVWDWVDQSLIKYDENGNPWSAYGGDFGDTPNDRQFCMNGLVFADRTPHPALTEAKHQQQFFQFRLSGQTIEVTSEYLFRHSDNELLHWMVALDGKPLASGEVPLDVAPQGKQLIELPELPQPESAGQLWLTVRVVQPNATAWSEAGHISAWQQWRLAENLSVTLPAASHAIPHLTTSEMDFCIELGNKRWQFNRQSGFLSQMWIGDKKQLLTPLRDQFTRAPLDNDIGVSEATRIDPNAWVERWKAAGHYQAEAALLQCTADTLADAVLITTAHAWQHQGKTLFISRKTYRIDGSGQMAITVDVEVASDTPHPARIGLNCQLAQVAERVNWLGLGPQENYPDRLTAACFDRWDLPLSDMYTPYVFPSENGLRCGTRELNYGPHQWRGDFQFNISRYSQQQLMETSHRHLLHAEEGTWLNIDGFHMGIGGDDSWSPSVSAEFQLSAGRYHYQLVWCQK
Sequence of Phosphomannomutase 2 (O15305 whole entry): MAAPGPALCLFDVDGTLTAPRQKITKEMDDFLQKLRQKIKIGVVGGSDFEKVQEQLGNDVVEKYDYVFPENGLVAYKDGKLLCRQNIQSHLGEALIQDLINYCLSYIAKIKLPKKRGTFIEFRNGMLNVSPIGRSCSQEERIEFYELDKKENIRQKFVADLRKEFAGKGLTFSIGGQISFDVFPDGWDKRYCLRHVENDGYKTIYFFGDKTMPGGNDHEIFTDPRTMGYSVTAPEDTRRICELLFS
Sequence of DNA damage-inducible transcript 3 protein (P35639 whole entry): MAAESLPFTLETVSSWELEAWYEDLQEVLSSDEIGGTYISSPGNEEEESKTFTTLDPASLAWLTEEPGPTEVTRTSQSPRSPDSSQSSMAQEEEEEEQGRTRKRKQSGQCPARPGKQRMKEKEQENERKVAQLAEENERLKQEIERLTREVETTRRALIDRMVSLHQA
Sequence of Sphingosine 1-phosphate receptor 1 (P21453 whole entry): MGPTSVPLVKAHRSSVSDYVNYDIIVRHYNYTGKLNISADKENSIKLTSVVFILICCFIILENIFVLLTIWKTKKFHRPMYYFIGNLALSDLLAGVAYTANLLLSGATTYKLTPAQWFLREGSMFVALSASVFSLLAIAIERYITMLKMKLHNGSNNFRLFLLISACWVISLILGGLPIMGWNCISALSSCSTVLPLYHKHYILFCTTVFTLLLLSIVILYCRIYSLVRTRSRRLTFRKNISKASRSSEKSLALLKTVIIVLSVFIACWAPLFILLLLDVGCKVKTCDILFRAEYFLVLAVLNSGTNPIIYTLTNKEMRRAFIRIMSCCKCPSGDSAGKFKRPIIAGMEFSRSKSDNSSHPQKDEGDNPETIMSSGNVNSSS

## O=c1c2cc(N3CCOCC3)ccc2sn1-c1ccccc1
Hexokinase
  IC50: 4.46 µM (active)

## Cc1ccc(Sc2ccc(NC(=O)CCl)cc2)cc1C
[1]
  AC50: 2.51 µM (active)
[2]
  CC50: 7.87 µM (active)
Melanocortin receptor 4
  EC50: > 89.2 µM (inactive)
Protein RecA
  EC50: 0.716 µM (active)

## CCCc1ccc2oc(C(=O)N(Cc3ccncc3)CC3CCCO3)c(C)c2c1 (stereo unspecified)
[3]
  EC50: 11.2 µM (inactive)

## CC(C)(C)C1C/C(=C/c2ccco2)C(=O)/C(=C/c2ccco2)C1 (stereo unspecified)
[4]
  Absolute IC50 (CHOP): < 10 µM

## Cc1cc(=O)oc2cc(OC(=O)CCN3C(=O)c4ccccc4C3=O)ccc12
Coagulation factor XII
  IC50: > 50 µM (inactive)

## COc1ccc(C/N=c2\ssnc2Cl)cc1
[5]
  IC50: 15.5 µM (active)
Phosphomannomutase 2
  IC50: > 100 µM (inactive)

## CCN(c1ccccc1)S(=O)(=O)c1cc([N+](=O)[O-])ccc1N
[6]
  EC50: 9.34 µM (active)
[7]
  EC50: > 49.8 µM (inactive)

## Cc1cc(N2C(=O)C=CC2=O)c([N+](=O)[O-])cc1C
Saccharomyces cerevisiae
  IC50: 23.9 µM (active)
[8]
  AC50: 1.07 µM (active)
[9]
  AC50: 4.18 µM (active)
[10]
  IC50: 17.7 µM (active)
Beta-galactosidase
  IC50: > 66.6 µM (inactive)

## COc1ccc(S(=O)(=O)N2CCOCC2)cc1NC(=O)c1cc2c(s1)CCCCC2
[11]
  EC50: > 32 µM (inactive)
Cannabinoid receptor 1 [12]
  EC50: > 32 µM (inactive)
Cannabinoid receptor 2 [13]
  EC50: > 32 µM (inactive)
[14]
  IC50: > 32 µM (inactive)
[15]
  EC50: > 32 µM (inactive)
Cannabinoid receptor 1 [16]
  IC50: 20.6 µM (inactive)
Cannabinoid receptor 2 [17]
  IC50: > 32 µM (inactive)

## CCOc1cc2[nH]c(=S)n(CCN3CCC(C)CC3)c(=O)c2cc1OCC
[18]
  EC50: > 100 µM (inactive)

## Cc1ccc(-c2nnc(NC(=O)COc3ccc(F)cc3Cl)o2)cc1C
[19]
  EC50: 1.1 µM (active)
